Experimental data as given in paper PMC8113459, “Selective inhibition of cullin 3 neddylation through covalent targeting DCN1 protects mice from acetaminophen-induced liver toxicity” (Nature Communications, 2021).
Values joined by “and” are separate entries in the source; they are usually repeats but may differ in a detail not shown here. Equal values may be shown once. One block for each compound: values may come before it.

Columns and labels:
DCN1 [1] = molecular target: T1, DCN1 (Homo sapiens, UniProt Q96GG9); test: Cocrystal structures of lyso-DCN1-inhibitor complexes; parameters: to DCN1 residues 62–251; His6 (N); TEV cleavage site (N); lysozyme residues 1–164 with C54T, C97A, A146T, D127A, R154A (fusion partner, N-terminal of DCN1); made in house; host or cells: Rosetta 2 cells (E. coli)
Procedure: Lysozyme–DCN1 gene was synthesized fusing lysozyme residues 1–164, containing mutations (C54T, C97A, A146T, D127A, and R154A), to DCN1 residues 62–251. Ligation independent cloning was utilized to clone the fused gene into an N-terminal His6–TEV expression vector. The clone was transformed into Rosetta 2 cells, grown in terrific broth at 37 °C, and expressed overnight with 0.4 mM isopropyl β-D-1-thiogalactopyranoside at 20 °C. Pelleted cells were freeze-thawed and lysed in 25 mM HEPES, pH 7.5, 150 mM NaCl, 0.1% β-mercaptoethanol and protease inhibitors. Cellular debris was removed via centrifugation. The supernatant was loaded onto a Ni-NTA (Qiagen) column at 4 °C. The column was washed with 25 mM HEPES, pH 7.5, 150 mM NaCl, and 20 mM imidazole, then protein eluted with buffer containing 300 mM imidazole. The eluate was applied to a Superdex 200 (GE Healthcare) equilibrated with 25 mM HEPES, pH 7.5, 200 mM NaCl, and 1 mM DTT. The protein was judged to be greater than 95% pure by SDS-PAGE, concentrated to 3.5 mg/mL and stored at −80 °C. Yield was 450 mg/L of expressed media.
Lyso–DCN1 protein was thawed and concentrated to 9.9 mg/mL in 25 mM HEPES, pH 7.5, 200 mM NaCl, and 1 mM DTT. Each compound was incubated with protein in a 1:1.2 protein to compound molar ratio overnight at 4 °C, then spun and setup in sitting drop vapor diffusion experiments. Crystallization drops contained 2 µL of protein–inhibitor solution and 1 µL of well solution. Crystals grew at 20 °C with well solution containing 28–33% PEG 3350 and 200 mM ammonium formate. Crystals were cryoprotected in 25 mM HEPES, pH 7.5, 200 mM NaCl, 30% PEG 3350, and 1 mM DTT.
Diffraction data were collected at a wavelength of 0.9786 Å on the APS LS-CAT 21-ID-G beamline at Argonne National Laboratory. Data were processed using HKL2000[44] and solved via molecular replacement using molrep[45] with two independent search models (lysozyme and DCN1) from PDB ID 5V83. The structures were iteratively fit and refined using Coot[46] and Buster[47]. […]
Target sequence in this assay (Q96GG9 62-251): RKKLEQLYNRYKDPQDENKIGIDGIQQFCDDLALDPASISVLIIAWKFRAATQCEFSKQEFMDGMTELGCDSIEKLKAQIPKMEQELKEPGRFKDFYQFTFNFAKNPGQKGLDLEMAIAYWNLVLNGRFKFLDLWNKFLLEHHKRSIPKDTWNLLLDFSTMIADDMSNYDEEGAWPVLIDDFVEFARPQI

DCN1 [2] = molecular target: T1, DCN1; test: Intact-protein mass spectrometric analysis of covalent complex formation, Method A; assay type: binding; details: for Percentage of the formation of covalent complex with DCN1 protein: 37 °C
Source text: MassHunter Qualitative Analysis software (Agilent) was used to analyze the data. Intact protein masses were obtained using the maximum entropy deconvolution algorithm. The mass spectrometry data in Supplementary Figs. 1–11 were generated by Method A.
Target sequence in this assay (Q96GG9 58-259 limits assumed): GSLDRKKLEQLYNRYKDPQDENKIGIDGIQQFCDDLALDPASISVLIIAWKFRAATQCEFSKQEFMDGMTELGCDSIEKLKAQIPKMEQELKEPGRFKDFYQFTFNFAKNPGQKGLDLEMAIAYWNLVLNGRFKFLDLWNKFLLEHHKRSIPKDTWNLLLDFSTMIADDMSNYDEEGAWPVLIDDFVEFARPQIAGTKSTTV

neddylation of cullin 3 [3] = test: Western blot, cullin 3 neddylation in cells of different tissue types (U2OS, THLE2, MDA-MB-231, KYSE70, HCT116); assay type: cell-based, human
Procedure: (§1) Western blotting was performed as described previously. Treated cells were lysed by RIPA buffer supplemented with protease inhibitor. The expression level of indicated proteins was examined by immunoblotting analysis and GAPDH was used as the loading control. Antibodies were purchased commercially: cullin 1 (sc-17775, 1:500 dilution) and cullin 2 (sc-166506, 1:500 dilution) from Santa Cruz Biotech (Santa Cruz, CA); cullin 4A (PA5-14542, 1:1000 dilution), cullin 4B (PA5-50647, 1:1000 dilution), and DCN3 (DCUN1D3, PA5-44000, 1:1000 dilution) from Thermo Fisher Scientific (Wayne, MI); cullin 3 (2759, 1:1000), NRF2 (12721, 1:1000 dilution), HO-1 (70081, 1:1000 dilution), and Bim (2819, 1:1000 dilution) from Cell Signaling Technology (Boston, MA); DCN1 (GWB-E3D700, 1:1000 dilution) from GenWay Biotech (San Diego, CA); and cullin 5 (A302-173A, 1:500 dilution) from Bethyl Labs (Montgomery, TX). Results are representative of two independent experiments.

[4] = system: neddylation of cullin 1, 2, 4A, 4B, and 5; test: Western blot, neddylation of other cullin members; assay type: cell-based, human; details: for selectivity in inhibition of the neddylation of cullin 3 over other cullin members: a number of cell lines
Procedure: as §1

NRF2 protein = test: Western blot, NRF2 protein accumulation in cells; assay type: cell-based, human
Procedure: as §1

neddylation of cullin 3 [5] = test: Western blot, cullin 3 neddylation in U2OS cells; assay type: cell-based, human; details: for concentration as low as which cullin 3 neddylation is inhibited / potency in inhibition of cullin 3 neddylation compared with DI-591 / times more potent than DI-591 in inhibition of cullin 3 neddylation: 24 h, Fig. 1c
Procedure: as §1

KEAP1 and p62 proteins = test: Western blot, KEAP1 and p62 in U2OS and THLE2 cells; assay type: cell-based, human; details: 6 h
Procedure: as §1
Supplementary Figure 22. Western blotting analysis of Keap1 and p62 in U2OS cells (a) and […]
The cells were treated with compounds as indicated for 6 h. Treated cells were harvested and lysed with RIPA buffer. The expression of P62 and Keap1 were examined by western blotting analysis. Antibody information:
Keap1 (cst, #8047), P62 (cst,#5114). GAPDH was used as a loading control. Representative images of two independent experiments are shown. […]

[6] = 10 min incubation, 1.2-fold excess inhibitor

- covalent complex formation / reaction kinetics with DCN1 protein (in words) (DCN1 [2]): very fast covalent complex formation
- Percentage of the formation of covalent complex with DCN1 protein (DCN1 [2]; [6]): 100%
- Percentage of the formation of covalent complex with DCN1 protein (DCN1 [2]; 60 min (1 h) incubation): 100%
- Percentage of the formation of covalent complex with DCN1 protein (DCN1 [2]; 180 min (3 h) incubation): 100%
SMILES: C=C(CN1CCOCC1)C(=O)NC[C@@H](NC(=O)[C@H](Cc1nc2ccc(C(C)C)cc2s1)NC(=O)CC)C1CCCCC1 [DI-1548]
- covalent bond to Cys115 of DCN1 in the cocrystal structure (DCN1 [1]): confirmed the covalent nature of these complexes
- concentration achieving profound inhibition of the neddylation of cullin 3 (neddylation of cullin 3 [3]): 1 to 3 nM
- concentration as low as which the level of neddylated cullin 3 is significantly reduced (neddylation of cullin 3 [3]): ≤ 0.3 nM
- effect on the neddylation of cullin 1 ([4]; U2OS, treatment time up to 48 h): no effect
- selectivity in inhibition of the neddylation of cullin 3 over other cullin members [4]: > 1000 fold and 1000 fold
- effect on the neddylation of cullin 1, 2, 4A, 4B, and 5 ([4]; concentrations up to 1000 nM): no obvious effect
- times more potent than DI-591 in inducing accumulation of NRF2 protein (NRF2 protein): 100–1000 times
- concentration as low as which cullin 3 neddylation is inhibited (neddylation of cullin 3 [5]): ≤ 1 nM
- potency in inhibition of cullin 3 neddylation compared with DI-591 (neddylation of cullin 3 [5]): much more potent than DI-591
- times more potent than DI-591 in inhibition of cullin 3 neddylation (neddylation of cullin 3 [5]): ~ 1000 times
- time within which the neddylation of cullin 3 is effectively inhibited (neddylation of cullin 3 [5]; U2OS, Fig. 6c): ≤ 5 min
- effect on protein levels of KEAP1 and p62 (KEAP1 and p62 proteins): no obvious effect

SMILES: C=C(CN(C)C)C(=O)NC[C@@H](NC(=O)[C@H](Cc1nc2ccc(C(C)C)cc2s1)NC(=O)CC)C1CCCCC1 [DI-1859]
- covalent bond to Cys115 of DCN1 in the cocrystal structure (DCN1 [1]): confirmed the covalent nature of these complexes
- covalent complex formation / reaction kinetics with DCN1 protein (in words) (DCN1 [2]): very fast covalent complex formation
- Percentage of the formation of covalent complex with DCN1 protein (DCN1 [2]; [6]): 100%
- Percentage of the formation of covalent complex with DCN1 protein (DCN1 [2]; 60 min (1 h) incubation): 100%
- Percentage of the formation of covalent complex with DCN1 protein (DCN1 [2]; 180 min (3 h) incubation): 100%
- concentration achieving profound inhibition of the neddylation of cullin 3 (neddylation of cullin 3 [3]): 1 to 3 nM
- concentration as low as which the level of neddylated cullin 3 is significantly reduced (neddylation of cullin 3 [3]): ≤ 0.3 nM
- inhibition of neddylation of cullin members ([4]; THLE2, Fig. 6b): similar, high selectivity
- selectivity in inhibition of the neddylation of cullin 3 over other cullin members [4]: 1000 fold
- times more potent than DI-591 in inducing accumulation of NRF2 protein (NRF2 protein): 100–1000 times
- concentration as low as which cullin 3 neddylation is inhibited (neddylation of cullin 3 [5]): ≤ 1 nM
- potency in inhibition of cullin 3 neddylation compared with DI-591 (neddylation of cullin 3 [5]): much more potent than DI-591
- times more potent than DI-591 in inhibition of cullin 3 neddylation (neddylation of cullin 3 [5]): ~ 1000 times
- effect on protein levels of KEAP1 and p62 (KEAP1 and p62 proteins): no obvious effect
